Data set [1] is described as follows: loose bulk density measurement of nicotinamide mononucleotide crystals (sieve, weigh, graduated cylinder). It is filed as physicochemical. The procedure:
Bulk densities mentioned below are all loose bulk densities, and specific values are measured by the following method: taking an object to be tested, sieving the object (1.00 mm No. 18), accurately weighing the object, slowly pouring the object into a glass graduated cylinder, scraping the top, recording an apparent volume, and calculating the bulk density; and taking 3 same samples for parallel measurement, recording the readings, and using an average value as a measurement result.

The conditions of data set [2]: prior-art crystals (CN108697722A; CN11269505A embodiment data); cited from earlier work.
For data set [3] the following is noted: CN11269505A embodiment data; cited from earlier work.
Setting [4] is: loose bulk density, average of 3 parallel samples.

Molecules are shown by their SMILES. Like-named read-outs stand apart in the source and are kept apart here.

In the case of `NC(=O)c1ccc[n+]([C@@H]2O[C@H](COP(=O)([O-])O)[C@@H](O)[C@H]2O)c1` [Comparative Example 1, nicotinamide mononucleotide], the Bulk density in data set [1] (setting [4]) was determined as 0.23 g/mL.
Consider `NC(=O)c1ccc[n+]([C@@H]2O[C@H](COP(=O)([O-])O)[C@@H](O)[C@H]2O)c1` [Comparative Example 2, nicotinamide mononucleotide], for which, in data set [1] (setting [4]), the Bulk density turned out to be 0.20 g/mL.
Compound `NC(=O)c1ccc[n+]([C@@H]2O[C@H](COP(=O)([O-])O)[C@@H](O)[C@H]2O)c1` [Comparative Example 3, nicotinamide mononucleotide] gave a Bulk density in data set [1] (setting [4]) of 0.40 g/mL.
Still for that read-out and setting: the result for `NC(=O)c1ccc[n+]([C@@H]2O[C@H](COP(=O)([O-])O)[C@@H](O)[C@H]2O)c1` [Comparative Example 4, nicotinamide mononucleotide] reads 0.56 g/mL.
Take `NC(=O)c1ccc[n+]([C@@H]2O[C@H](COP(=O)([O-])O)[C@@H](O)[C@H]2O)c1` [Example 1, nicotinamide mononucleotide]: the Bulk density was determined as 1.05 g/mL in data set [1] (water content of semi-solid 1%, pH 3.5, ethanol, cooling 10° C./h to 10° C.); 1.03 g/mL in data set [1] (water content of semi-solid 5%, pH 3.5, ethanol, cooling 10° C./h to 10° C.); 0.89 g/mL in data set [1] (water content of semi-solid 10%, pH 3.5, ethanol, cooling 10° C./h to 10° C.); 0.77 g/mL in data set [1] (water content of semi-solid 15%, pH 3.5, ethanol, cooling 10° C./h to 10° C.); 0.67 g/mL in data set [1] (water content of semi-solid 20%, pH 3.5, ethanol, cooling 10° C./h to 10° C.); 0.56 g/mL in data set [1] (water content of semi-solid 25%, pH 3.5, ethanol, cooling 10° C./h to 10° C.). The Bulk density amounted to 0.44 g/mL in data set [1] (water content of semi-solid 35%, pH 3.5, ethanol, cooling 10° C./h to 10° C.); 0.33 g/mL in data set [1] (water content of semi-solid 50%, pH 3.5, ethanol, cooling 10° C./h to 10° C.); 0.26 g/mL in data set [1] (water content of semi-solid 75%, pH 3.5, ethanol, cooling 10° C./h to 10° C.).
For the compound `NC(=O)c1ccc[n+]([C@@H]2O[C@H](COP(=O)([O-])O)[C@@H](O)[C@H]2O)c1` [Example 2, nicotinamide mononucleotide], the Bulk density turned out to be 0.93 g/mL in data set [1] (cooling rate 1, crystallization end temperature 10, water content 10%, pH 3.5); 0.88 g/mL in data set [1] (cooling rate 1, crystallization end temperature 18, water content 10%, pH 3.5); 0.93 g/mL in data set [1] (cooling rate 3, crystallization end temperature 10, water content 10%, pH 3.5); 0.92 g/mL in data set [1] (cooling rate 5, crystallization end temperature 5, water content 10%, pH 3.5); 0.92 g/mL in data set [1] (cooling rate 5, crystallization end temperature 10, water content 10%, pH 3.5); 0.88 g/mL in data set [1] (cooling rate 5, crystallization end temperature 18, water content 10%, pH 3.5). Further, the Bulk density is 0.88 g/mL in data set [1] (cooling rate 10, crystallization end temperature 5, water content 10%, pH 3.5); 0.89 g/mL in data set [1] (cooling rate 10, crystallization end temperature 10, water content 10%, pH 3.5); 0.84 g/mL in data set [1] (cooling rate 10, crystallization end temperature 18, water content 10%, pH 3.5); 0.84 g/mL in data set [1] (cooling rate 15, crystallization end temperature 8, water content 10%, pH 3.5); 0.84 g/mL in data set [1] (cooling rate 15, crystallization end temperature 10, water content 10%, pH 3.5); 0.82 g/mL in data set [1] (cooling rate 15, crystallization end temperature 18, water content 10%, pH 3.5). In addition, the Bulk density in data set [1] (cooling rate 15, crystallization end temperature 25, water content 10%, pH 3.5) worked out at 0.34 g/mL; in data set [1] (cooling rate 20, crystallization end temperature 10, water content 10%, pH 3.5) it was 0.35 g/mL.
`NC(=O)c1ccc[n+]([C@@H]2O[C@H](COP(=O)([O-])O)[C@@H](O)[C@H]2O)c1` [Example 3, nicotinamide mononucleotide]: the Bulk density in data set [1] (pH value of aqueous solution of NMN 3.5, water content 10%, cooling 10° C./h to 10° C.) was determined as 0.89 g/mL; in data set [1] (pH value of aqueous solution of NMN 4.5, water content 10%, cooling 10° C./h to 10° C.), 1.08 g/mL; in data set [1] (pH value of aqueous solution of NMN 5.0, water content 10%, cooling 10° C./h to 10° C.), 1.09 g/mL; in data set [1] (pH value of aqueous solution of NMN 5.5, water content 10%, cooling 10° C./h to 10° C.), 1.09 g/mL; in data set [1] (pH value of aqueous solution of NMN 6.0, water content 10%, cooling 10° C./h to 10° C.) it was 1.07 g/mL; in data set [1] (pH value of aqueous solution of NMN 6.5, water content 10%, cooling 10° C./h to 10° C.), 1.08 g/mL. The compound further showed a Bulk density in data set [1] (pH value of aqueous solution of NMN 7.0, water content 10%, cooling 10° C./h to 10° C.) of 0.81 g/mL.
The compound `NC(=O)c1ccc[n+]([C@@H]2O[C@H](COP(=O)([O-])O)[C@@H](O)[C@H]2O)c1` [Example 4, nicotinamide mononucleotide] had a Bulk density in data set [1] (setting [4]) of 1.02 g/mL.
On to `NC(=O)c1ccc[n+]([C@@H]2O[C@H](COP(=O)([O-])O)[C@@H](O)[C@H]2O)c1` [Example 5, nicotinamide mononucleotide], for which the Bulk density in data set [1] (setting [4]) is 1.17 g/mL.
Regarding `NC(=O)c1ccc[n+]([C@@H]2O[C@H](COP(=O)([O-])O)[C@@H](O)[C@H]2O)c1` [Example 6, nicotinamide mononucleotide], in data set [1] (setting [4]), the Bulk density came out at 1.21 g/mL.
Still for that read-out and setting: with `NC(=O)c1ccc[n+]([C@@H]2O[C@H](COP(=O)([O-])O)[C@@H](O)[C@H]2O)c1` [Example 7, nicotinamide mononucleotide] the figure was 0.95 g/mL.
Compound `NC(=O)c1ccc[n+]([C@@H]2O[C@H](COP(=O)([O-])O)[C@@H](O)[C@H]2O)c1` [Example 8, nicotinamide mononucleotide] registered a Bulk density in data set [1] (setting [4]) of 1.24 g/mL.
`NC(=O)c1ccc[n+]([C@@H]2O[C@H](COP(=O)([O-])O)[C@@H](O)[C@H]2O)c1` [form 1, β-nicotinamide mononucleotide, reference compound]: the Bulk density in data set [1] (loose bulk density, average of 3 parallel samples, listed as nicotinamide mononucleotide anhydrous crystal) was 0.20 g/mL; in data set [2], “about 0.2 g/ml”.
For `NC(=O)c1ccc[n+]([C@@H]2O[C@H](COP(=O)([O-])O)[C@@H](O)[C@H]2O)c1` [form 2, β-nicotinamide mononucleotide], the Bulk density entry in data set [2] is recorded as “about 0.2 g/ml”.
`NC(=O)c1ccc[n+]([C@@H]2O[C@H](COP(=O)([O-])O)[C@@H](O)[C@H]2O)c1` [high-density NMN, nicotinamide mononucleotide]: in data set [2], the Bulk density is 0.52 g/mL. The tap density in data set [3] was 0.71 g/mL.

The values above are taken from patent US12570682B2, “Method for increasing bulk density of nicotinamide mononucleotide crystal and crystal thereof” (BONTAC BIO-ENGINEERING (SHENZHEN) CO., LTD, priority 2021, dated 2026).
